Experimental data reported in the NIST ThermoML archive (doi:10.1021/je049823k).
Numbers after ± are expanded uncertainties.

Details: Liquid, Transpiration method

CC(C)(C)OCc1ccccc1 [ether, benzyl tert-butyl]
Details	vapor or sublimation pressure [kPa]
277.8 K	0.00512 ± 0.00036
278.1 K	0.00528 ± 0.00037
279.1 K	0.00577 ± 0.00041
281.3 K	0.00698 ± 0.00049
282.9 K	0.00797 ± 0.00056
284.3 K	0.00893 ± 0.00063
286.2 K	0.01095 ± 0.00077
287.3 K	0.01177 ± 0.00082
287.8 K	0.01209 ± 0.00085
288.2 K	0.0131 ± 0.00095
290 K	0.01485 ± 0.001
292.2 K	0.0182 ± 0.0013
293 K	0.01888 ± 0.0013
293.2 K	0.01908 ± 0.0013
295.2 K	0.02312 ± 0.0016
296.2 K	0.02445 ± 0.0017
297.2 K	0.02652 ± 0.0019
298 K	0.02843 ± 0.002
298.2 K	0.02924 ± 0.0021
299.2 K	0.03085 ± 0.0022
300.3 K	0.03419 ± 0.0024
302.2 K	0.03875 ± 0.0027
303.1 K	0.04177 ± 0.0032
303.2 K	0.04305 ± 0.0033
308 K	0.05754 ± 0.004

OCc1ccccc1 [benzenemethanol]
Details	vapor or sublimation pressure [kPa]
282.9 K	0.00306 ± 0.00022
285.9 K	0.00407 ± 0.00029
288.9 K	0.00532 ± 0.00038
292.1 K	0.00738 ± 0.00052
295.3 K	0.00983 ± 0.00069
298.2 K	0.01251 ± 0.00088
301.2 K	0.01645 ± 0.0012
302.8 K	0.01923 ± 0.0014
305.8 K	0.02541 ± 0.0018
308.8 K	0.03192 ± 0.0022
311.7 K	0.03999 ± 0.0028
314.9 K	0.05172 ± 0.0036
318.1 K	0.06709 ± 0.0047
321.1 K	0.08348 ± 0.0059
